How the values were obtained:
[1] = system: circulating endothelial colony forming cells (ECFC); experiment: Circulating endothelial colony forming cells (ECFC) in human volunteers before and after meloxicam; format: in vivo; conditions: post 5 day regimen; before treatment only 4/7 had detectable ECFC
Description: For analysis of circulating ECFC, PB mononuclear cells were plated in media at 37° C., 5% CO2, 5% O2 in 6 well culture plates coated with type 1 collagen. Media was be replaced every other day for 7-14 days at which time the adherent colonies of endothelial cells (EC) are removed with Trypsin and replated in collagen coated culture wells at a single cell per well. After 14 days each well is visually examined to determine whether there are 2 or more cells per well and if so, the total number of EC counted.

[2] = system: progenitors from the bone marrow; experiment: Mobilization of progenitors from the bone marrow (NSAID comparison); conditions: in vivo

SMILES | volunteers with detectable ECFC in 40 mL of blood post treatment [1] | ability to mobilize progenitors from the bone marrow [2]
Cc1cnc(NC(=O)C2=C(O)c3ccccc3S(=O)(=O)N2C)s1 [Meloxicam, meloxicam] | 7/7 | –
CC(=O)Oc1ccccc1C(=O)O [aspirin] | – | highly effective
Cc1onc(-c2ccccc2)c1-c1ccc(S(N)(=O)=O)cc1 [valdecoxib] | – | unable to mobilize
